Measured values taken from publication PMC7139375 (2020).

Legend:
[1] = test system: DDT_13 (DNA, aptamer) TCCAGCACTCCACGCATAACGAATTGTGCTCAATGCGCCCCTGCAGTGAATGTGGAATTTGTTATGCGTGCGACGGTGAA; experiment: AuNPs colorimetric assay; details: room temperature
[2] = test system: DDT_13 (DNA, aptamer) TCCAGCACTCCACGCATAACGAATTGTGCTCAATGCGCCCCTGCAGTGAATGTGGAATTTGTTATGCGTGCGACGGTGAA; experiment: SYBR Green I fluorescence assay; details: 137 mM NaCl, 2.5 mM KCl, 0.5 mM MgCl2, 1 mM CaCl2; phosphate binding buffer pH 7.2, room temperature; interferent prepared at 5 μM

SMILES | binding ([1]; interferent prepared at 7.4 μM) | binding ([1]; interferent prepared at 16 μM) | binding [2]
CC(C)(c1cc(Br)c(O)c(Br)c1)c1cc(Br)c(O)c(Br)c1 | no |  | 
CCOC(=O)C(C)=O |  | no | 
O=C(O)C(F)(F)C(F)(F)C(F)(F)C(F)(F)C(F)(F)C(F)(F)C(F)(F)F |  | no | 
O=C(O)C(c1ccc(Cl)cc1)c1ccc(Cl)cc1 |  | no | no
O=C(O)CNCP(=O)(O)O |  | no | no
